Experiments:
Format in all cases: cell-based
[1] = target: T1, hKV1.2 (Homo sapiens, UniProt P16389); assay: Whole-cell patch-clamp, block of KV1.2 current
T1 construct: GFP (vector pCMV6-AC-GFP); host or cells: CHO cells, transient transfection
Description: (§1) We, therefore, aimed at testing the pharmacological activity of sCm39 on a battery of various potassium and sodium ion channels. Among the tested channels were six members of human voltage-gated K^+ (hKV) channels from Shaker family, hKV1.1-hKV1.6 (Figure 3A–F) and three members of Ca^2+-activated potassium channel; hKCa2.2 (SK2, Figure 3I), the small-conductance Ca^2+-activated channel; hKCa3.1 (IKCa1, SK4. Figure 3J), the intermediate-conductance Ca^2+-activated channel expressed in T lymphocytes; and mKCa1.1 (BK, Slo1, MaxiK, Figure 3H), the large-conductance voltage- and Ca^2+-activated channel of mice. In addition, we also screened the effect of Cm39 on hKV11.1 (hERG1, Figure 3G), a voltage-gated cardiac K^+ channel, and two human voltage-gated sodium (hNaV) channels, hNaV1.4 (Figure 3K) and hNaV1.5 (Figure 3L), expressed in skeletal and cardiac muscles, respectively. These ion channels were heterologously expressed in the CHO or HEK cell lines except for KV1.3. Human peripheral T lymphocytes. They were stimulated with Phytohemagglutinin A (PHA) to increase the KV1.3 channel expression, and Ca^2+-free intracellular solution was used to avoid KCa3.1 channel activation. Appropriate depolarization protocols were used to record ionic currents in voltage-clamped cells (see Figure 3 insets and Material and Methods for details). Freshly dissolved sCm39 in extracellular solution was applied at 1 µM concentration on the cell using a custom-built micro-perfusion system at ~200 µL/min flow rate.
For comprehensive characterization of Cm39 activity on KV1.2, we determined the concentration–response of current inhibition by Cm39, the kinetic parameters of its binding and assessed the effect on voltage dependence of steady-state activation. The whole-cell KV1.2 currents were recorded in CHO cells using depolarization pulses to +50mV from −120mV holding potential (Vh) every 15 s. Since the activation kinetics of KV1.2 are highly variable, the duration of pulses was set on a cell-by-cell basis between 15–300 ms to allocate sufficient time for reaching maximum currents at the test potentials. […] The remaining current fractions (RCF = I/I0, where I0 is the peak current in the absence of the toxin, and I is the peak current at equilibrium block in the presence of sCm39 at a given concentration) were calculated and plotted as a function of toxin concentration.
Single-exponential decay functions were fitted to the normalized peak currents in the presence of each sCm39 concentration (Figure 4C, data points in red shades) to determine the time constant for the onset of block (τon, wash-in or association time constant). The dissociation time constant for the relief from block (τoff, wash-out time constant) was obtained by fitting a single-exponential rising function to the normalized peak currents in the wash-out procedure (Figure 4C, data point in black empty circles). Assuming a simple bimolecular interaction between the toxin and the channel, time constants for the onset and recovery from the block can be stated as follows:(1) τon=1/kon×[toxin]+koff , τoff=1/koff where kon represents the second-order association rate constant, koff indicates the first-order dissociation rate constant and [toxin] is the sCm39 concentration. […] The second-order rate constant of association (kon) was determined by fitting the 1/τon data points using linear regression with koff as the y-intercept.

[2] = target: T2, hKCa3.1 (Homo sapiens, UniProt O15554); assay: Whole-cell patch-clamp, block of KCa3.1 current
T2 construct: EGFP (vector pEGFP-C1); expressed in transfected cells; host or cells: CHO cells, transient transfection
Description: as §1
(§2) The whole-cell K^+ currents of CHO cells transiently expressing KCa2.2 or KCa3.1 channels were recorded sequentially by applying the 150 ms long voltage ramp to +50 mV from Vh of −120 mV every 10 s in the presence of control solution or upon perfusing the cell with different concentrations of sCm39. Normalized peak currents were calculated and plotted as function of time as shown in Figure 5A for KCa2.2 and in Figure 5C for KCa3.1 in the presence of the toxin at various concentrations and upon wash-out. […] RCF values were determined at equilibrium block in the presence of various concentrations of sCm39 and fitted with the Hill equation (see Materials and Methods for details).
(§3) Chinese hamster ovary (CHO) cells (gift from Yosef Yarden, Weizmann Institute of Science, Rehovot, Israel) were maintained by culturing in Dulbecco’s modified Eagle medium (DMEM, Gibco) supplemented with 2 mM L-glutamine, 10% FBS, 100 µg/mL streptomycin and 100 U/mL penicillin-g (Sigma-Aldrich) at a density of 0. 5−1×10^6 cells per mL in a humidified incubator at 37 °C and 5% CO2. Cells were passaged 3 times in a week following a 2–5 min incubation in 0.05% trypsin-EDTA solution at 37 °C. Cultures were used up to passage number 20. PCR-based tests were routinely used to detect mycoplasma infection, only mycoplasma-free cultures were used for experiments.
(§4) Those plasmids which lack a fluorescent tag were co-transfected with a plasmid encoding GFP. Transfections were performed at a GFP:channel DNA molar ratio of 1:10 using the Lipofectamine 2000 kit (Invitrogen) according to the manufacturer’s protocol. […] Generally, currents were recorded 24 to 48 h post transfection.
(§5) For the measurement of KV1.x, mKCa1.1 and NaV1.x currents the extracellular solution was composed of (in mM) 145 NaCl, 5 KCl, 2.5 CaCl2, 1 MgCl2, 10 HEPES and 5.5 glucose, pH 7.35.

[3] = target: T3, hKCa2.2 (Homo sapiens, UniProt Q9H2S1); assay: Whole-cell patch-clamp, block of KCa2.2 current
T3 construct: expressed in transfected cells; host or cells: CHO cells, transient transfection, co-transfected with a GFP plasmid
Description: as §1, §2, §3, §4, §5

[4] = 1 µM, CHO cells, current at +48 mV, n = 3−5 (Figure 3M)
[5] = wash-out with toxin-free solution

T3 sequence (Q9H2S1 whole entry): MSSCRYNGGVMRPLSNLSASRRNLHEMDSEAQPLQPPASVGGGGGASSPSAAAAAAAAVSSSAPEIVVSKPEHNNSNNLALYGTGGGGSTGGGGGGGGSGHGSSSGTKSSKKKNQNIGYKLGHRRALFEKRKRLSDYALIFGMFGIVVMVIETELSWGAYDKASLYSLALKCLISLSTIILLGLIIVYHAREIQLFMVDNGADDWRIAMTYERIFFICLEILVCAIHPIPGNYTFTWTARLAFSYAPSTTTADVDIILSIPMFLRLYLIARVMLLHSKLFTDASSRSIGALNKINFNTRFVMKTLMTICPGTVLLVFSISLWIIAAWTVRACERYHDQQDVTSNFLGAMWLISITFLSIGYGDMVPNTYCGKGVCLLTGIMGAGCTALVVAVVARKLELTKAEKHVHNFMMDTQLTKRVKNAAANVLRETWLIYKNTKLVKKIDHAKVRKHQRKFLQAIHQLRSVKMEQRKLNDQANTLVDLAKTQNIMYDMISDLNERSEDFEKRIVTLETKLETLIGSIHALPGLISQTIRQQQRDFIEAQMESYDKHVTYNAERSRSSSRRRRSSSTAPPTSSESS
T1 sequence (P16389 whole entry): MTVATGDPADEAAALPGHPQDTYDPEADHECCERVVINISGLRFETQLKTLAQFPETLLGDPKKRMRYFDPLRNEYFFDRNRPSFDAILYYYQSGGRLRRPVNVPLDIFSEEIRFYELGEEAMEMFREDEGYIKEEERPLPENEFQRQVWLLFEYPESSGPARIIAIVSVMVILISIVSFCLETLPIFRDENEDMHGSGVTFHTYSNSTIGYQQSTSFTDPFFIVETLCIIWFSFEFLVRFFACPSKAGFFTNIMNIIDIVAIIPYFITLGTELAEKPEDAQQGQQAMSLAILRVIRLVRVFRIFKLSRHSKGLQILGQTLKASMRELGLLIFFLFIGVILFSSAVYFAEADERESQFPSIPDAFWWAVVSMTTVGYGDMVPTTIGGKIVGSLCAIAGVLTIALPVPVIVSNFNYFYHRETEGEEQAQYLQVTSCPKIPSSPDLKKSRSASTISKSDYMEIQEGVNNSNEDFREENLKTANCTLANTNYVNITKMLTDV
T2 sequence (O15554 whole entry): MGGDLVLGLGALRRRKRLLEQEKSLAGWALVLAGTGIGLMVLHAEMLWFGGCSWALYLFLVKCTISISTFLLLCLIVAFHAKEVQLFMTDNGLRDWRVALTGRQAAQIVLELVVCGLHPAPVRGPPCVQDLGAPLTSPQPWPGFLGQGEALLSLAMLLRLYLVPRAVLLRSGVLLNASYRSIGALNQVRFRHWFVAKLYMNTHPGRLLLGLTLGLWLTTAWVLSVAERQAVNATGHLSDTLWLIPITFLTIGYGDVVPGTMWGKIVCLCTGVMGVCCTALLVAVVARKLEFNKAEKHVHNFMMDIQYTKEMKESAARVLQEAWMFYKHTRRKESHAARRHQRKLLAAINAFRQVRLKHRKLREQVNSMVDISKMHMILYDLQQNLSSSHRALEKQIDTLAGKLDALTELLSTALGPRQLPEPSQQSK

## CC[C@H](C)[C@@H]1NC(=O)[C@H](C)NC(=O)[C@H](C)NC(=O)[C@H](CCCCN)NC(=O)[C@@H]2CSSC[C@@H](C(=O)N[C@@H](Cc3ccc(O)cc3)C(=O)N[C@@H](Cc3ccc(O)cc3)C(=O)O)NC(=O)[C@H](CCCCN)NC(=O)[C@@H]3CSSC[C@H](NC(=O)[C@H](CCC(=O)O)NC(=O)[C@H](CO)NC(=O)[C@H](CO)NC(=O)[C@H](CO)NC(=O)[C@H](CCCCN)NC(=O)[C@@H](NC(=O)[C@H](CCCCN)NC(=O)[C@H](Cc4c[nH]cn4)NC(=O)[C@H](CC(N)=O)NC(=O)[C@@H](NC(=O)[C@H](Cc4ccccc4)NC(=O)[C@@H](N)[C@@H](C)O)[C@@H](C)CC)CSSC[C@H](NC(=O)[C@H](CCCCN)NC(=O)CNC(=O)[C@H](CO)NC(=O)[C@H](C)NC(=O)[C@H](CCCNC(=N)N)NC(=O)CNC1=O)C(=O)N[C@@H]([C@@H](C)CC)C(=O)N[C@@H](CC(N)=O)C(=O)N[C@@H](CO)C(=O)N[C@@H]([C@@H](C)O)C(=O)N3)C(=O)N[C@@H](CC(C)C)C(=O)N1CCC[C@H]1C(=O)N[C@@H](C)C(=O)N2 [Cm39]
[1]; 5 nM, CHO cells, pulses to +50 mV, read-out: inhibition of KV1.2 current at equilibrium block
  inhibition at 0.005 µM: ~5%
[1]; 20 nM, CHO cells, pulses to +50 mV, read-out: inhibition of KV1.2 current at equilibrium block
  inhibition at 0.02 µM: ~22%
[1]; 50 nM, CHO cells, pulses to +50 mV, read-out: inhibition of KV1.2 current at equilibrium block
  inhibition at 0.05 µM: ~43%
[1]; 100 nM, CHO cells, pulses to +50 mV, read-out: inhibition of KV1.2 current at equilibrium block
  inhibition at 0.1 µM: ~62%
[1]; 250 nM, CHO cells, pulses to +50 mV, read-out: inhibition of KV1.2 current at equilibrium block
  inhibition at 0.25 µM: ~78%
[1]; 500 nM, CHO cells, pulses to +50 mV, read-out: inhibition of KV1.2 current at equilibrium block
  inhibition at 0.5 µM: ~87%
[1]; 1 µM, CHO cells, n = 3−5 (Figure 3M)
  reduction of current at equilibrium block: 95%
[1]; 5−500 nM
  toxin association and dissociation kinetics: fast
[1]; 5−500 nM, listed as sCm39
  toxin association and dissociation kinetics: very fast
[1]; KV1.2 over KV1.3
  selectivity for KV1.2 over KV1.3: > 15 fold
[1]; concentration-response of KV1.2 block, CHO cells
  Hill coefficient: 0.96
[1]; slope of linear regression of 1/τon vs concentration, r^2 = 0.97, CHO cells, read-out: second-order association rate constant kon
  kon: 215000 M⁻¹ s⁻¹
[1]; wash-out with toxin-free solution, 5−500 nM
  reversibility of KV1.2 block: fully reversible
[1]; wash-out, single-exponential fit, CHO cells, simple bimolecular interaction assumed, read-out: dissociation rate constant koff (1/τoff)
  koff: 0.019 ± 0.0013 s⁻¹
[2]; [4]
  reduction of current at equilibrium block: 86%
[2]; CHO cells
  toxin association and dissociation kinetics: fast
[2]; CHO cells, listed as sCm39
  toxin association and dissociation kinetics: very fast
[2]; concentration-response of KCa3.1 block, CHO cells
  Hill coefficient (H): 0.68
[2]; pulses separated by 10 s
  development and almost full recovery from equilibrium block: 1–3 depolarization pulses
[2]; [5]
  reversibility of KCa3.1 block: fully reversible
[3]; [4]
  reduction of current at equilibrium block: 55%
[3]; CHO cells
  toxin association and dissociation kinetics: fast
[3]; CHO cells, listed as sCm39
  toxin association and dissociation kinetics: very fast
[3]; concentration-response of KCa2.2 block, CHO cells
  Hill coefficient (H): 0.7
[3]; pulses separated by 10 s
  development and almost full recovery from equilibrium block: 1–3 depolarization pulses
[3]; [5]
  reversibility of KCa2.2 block: fully reversible

Reference: article PMC9866218, “Characterization and Chemical Synthesis of Cm39 (α-KTx 4.8): A Scorpion Toxin That Inhibits Voltage-Gated K^+ Channel KV1.2 and Small- and Intermediate-Conductance Ca^2+-Activated K^+ Channels KCa2.2 and KCa3.1” (Toxins, 2023)
